Assay results from US4755522A, “Derivatives of N-[3-(2,4,6-trimethoxybenzoyl)propyl]piperidine, and their use in therapeutics” (priority 1986, dated 1988).
Counter-ions that a name gives are not always drawn. Like-named read-outs stand apart in the source and are kept apart here.

Legend:
cardio-vascular system = assay: Action on the cardio-vascular system in the anaesthetized dog; format: in vivo; settings: for minimal effective dose: Canis lupus familiaris, read-out: dose from which heart rate is significantly reduced
Description: (b) Action on the cardio-vascular system (in the dog).
(§1) 3 dogs (average weight, 12 kg) anaesthetized with nembutal, receive the compound by intra-duodenal route at successive doses of 0.1-0.5-2.5-10 and 20 mg/kg.
The arterial pressure, the cardiac rate, the femoral arterial flow, the vertebral arterial flow, the rectal and skin temperatures are all measured. The coloration of the skin is observed.
(§2) 3 dogs (average weight, 14 kg) anaesthetized with nembutal, received the CRL 41,390 by intra-duodenal route, at successive doses of 0.1-0.5-1-2.5-5-10-20 mg/kg, then a supplementary dose of 10 mg/kg I.V.
The arterial pressure, the cardiac frequency, the femoral arterial flow, the vertebral arterial flow, the rectal and cutaneous temperatures, were measured. The coloration of the skin was observed.

awakened dog = assay: Anti-arrhythmic action on the awakened dog; format: in vivo
noradrenaline = assay: Hypertension with noradrenaline after the compound (dog); format: in vivo; settings: after CRL 41,390
Description: as §1, §2
Hypertension to noradrenaline is not modified: at 2 mcg/kg of noradrenaline, the systolic arterial pressure passes, after administration of the product, from 160 to 290 mmHg/161 to 289 mmHg in the control.

isoprenaline = assay: Effects of isoprenaline on arterial pressure and cardiac rate after the compound (dog); format: in vivo; settings: after CRL 41,390
Description: as §2

[1] = system: arrhythmias with aconitine; assay: Arrhythmias with aconitine in the guinea-pig; format: in vivo
Description: The compound was administered by intravenous route at a dose of 10 mg/kg to a series of 10 albino guinea-pigs of 380 to 495 g, anaesthetized with urethane.
5 minutes later, they receive an I.V. perfusion of the product causing arrhythmia at a dosage of 0.09 mg/min. in a volume of 0.6 ml/min.
The compound is compared with quinidine at a dose of 5 mg/kg I>V> and with a series of controls.
Lots are drawn for the treatments.
B--Action on arrhythmias with aconitine.

[2] = system: arrhythmias caused by I.V. injection of adrenaline; assay: Arrhythmias caused by I.V. adrenaline in dogs with coronary artery previously ligatured; format: in vivo, dog
[3] = system: amphetaminic stereotypies; assay: Amphetaminic stereotypies in the rat; format: in vivo
Description: (§3) The compound of example 2 in solution in distilled water (pH 5.5 to 6.0) was administered by intraperitoneal route at a rate of 20 ml/kg in mice (male, NMRI, C.E.R. January) and of 5 ml/kg to rats (male, CD1, Sprague Dawley, Charles River).

intergroup aggressivity = assay: Intergroup aggressivity; settings: in vivo
Description: as §3

reserpinic hypothermia = assay: Reserpinic hypothermia; settings: in vivo
Description: as §3

man = assay: Anti-depressant effect in man; format: in vivo
arterial pressure = settings: prior-technique compound; cited from earlier work
[4] = I.D. 0.1-20 mg/kg then 10 mg/kg I.V.

SMILES: COc1cc(OC)c(C(=O)CCCN2CCCC(C(=O)O)C2)c(OC)c1.Cl (centres unmarked) [CRL 41,390, N-[3-(2,4,6-trimethoxybenzoyl)propyl]-3-piperidine carboxylic acid hydrochloride]
- effect on vertebral flow (cardio-vascular system; 20 mg/kg): reduction in the vertebral flow
- effect on femoral flow (cardio-vascular system; 20 mg/kg, particularly in a dog): slight increase in the femoral flow
- minimal effective dose (cardio-vascular system; intraduodenal): 20 mg/kg
- minimal effective dose (cardio-vascular system; iv, I.V.): 2.5 mg/kg
- effect on rectal and cutaneous temperatures (cardio-vascular system; [4]): moderately reduced
- effect on the arterial pressure (cardio-vascular system; [4]): no effect on the arterial pressure
- effect on heart rate (cardio-vascular system; from I.V. 2.5 mg/kg and intraduodenal 20 mg/kg): significantly reduces the heart rate
- anti-arrhythmic action (awakened dog): no anti-arrhythmic action
- systolic arterial pressure after the product, with noradrenaline (noradrenaline; 2 mcg/kg noradrenaline, control 289): 290 mmHg
- hypertension to noradrenaline (noradrenaline): not modified
- systolic arterial pressure after the product, before noradrenaline (noradrenaline; control 161): 160 mmHg
- diastolic arterial pressure after the product, with isoprenaline (isoprenaline; 10 mcg/kg isoprenaline, control 35): 44 mmHg
- cardiac frequency after the product, with isoprenaline (isoprenaline; 10 mcg/kg isoprenaline, control 272): 250 beats/min.
- effects of isoprenaline on diastolic arterial pressure and cardiac frequency (isoprenaline): slightly reduced
- diastolic arterial pressure after the product, before isoprenaline (isoprenaline; control 135): 131 mmHg
- cardiac frequency after the product, before isoprenaline (isoprenaline; control 185): 148 beats/min.

SMILES: C=C[C@H]1C[N@@]2CC[C@H]1C[C@@H]2[C@@H](O)c1ccnc2ccc(OC)cc12 [quinidine, reference compound]
- appearance of ventricular tachycardia due to aconitine ([1]; quinidine 5 mg/kg I.V.): significantly retards only the appearance of ventricular tachycardia
- retardation of ventricular tachycardia (average) ([1]; quinidine 5 mg/kg I.V.): +30%
- retardation compared with the compound according to the invention ([1]; quinidine 5 mg/kg I.V. vs compound 10 mg/kg I.V.): significantly less than that observed with the compound according to the invention

SMILES: CCOC(=O)C1CCCN(CCCC(=O)c2c(OC)cc(OC)cc2OC)C1 (centres unmarked) [CRL 41,389, ethyl N-[3-(2,4,6-trimethoxybenzoyl)propyl] nipecotate hydrochloride]
- minimal effective dose ([2]; Canis lupus familiaris, iv, read-out: dose from which arrhythmias are reduced): 2.5 mg/kg
- arrhythmias caused by I.V. adrenaline ([2]; from 2.5 mg/kg): reduces arrhythmias
- amphetaminic stereotypies [3]: moderate potentialization
- intergroup aggressivity (intergroup aggressivity): reduction of intergroup aggressivity
- reserpinic hypothermia (reserpinic hypothermia): aggravation of reserpinic hypothermia
- effect in man (man): anti-depressant stimulant

SMILES: COc1cc(OC)c(C(=O)CCCN2CCCC(C)C2)c(OC)c1 (centres unmarked) [CRL 41,034, (2,4,6-trimethoxyphenyl)-[3-(3-methylpiperidino)propyl] ketone]
- effect on the arterial pressure (arterial pressure): hypotensive effect
